Values joined by “and” are separate entries in the source; they are usually repeats but may differ in a detail not shown here. Equal values may be shown once. “Also recorded” adds a separate entry of the source. Read-outs that look alike come from different tables or passages of the source.
Legend:
serum β-glucuronidase [1] = target: T1, serum β-glucuronidase (Rattus norvegicus, UniProt P06760); test: in vivo; type: in vivo
T1 sequence (P06760 23-648): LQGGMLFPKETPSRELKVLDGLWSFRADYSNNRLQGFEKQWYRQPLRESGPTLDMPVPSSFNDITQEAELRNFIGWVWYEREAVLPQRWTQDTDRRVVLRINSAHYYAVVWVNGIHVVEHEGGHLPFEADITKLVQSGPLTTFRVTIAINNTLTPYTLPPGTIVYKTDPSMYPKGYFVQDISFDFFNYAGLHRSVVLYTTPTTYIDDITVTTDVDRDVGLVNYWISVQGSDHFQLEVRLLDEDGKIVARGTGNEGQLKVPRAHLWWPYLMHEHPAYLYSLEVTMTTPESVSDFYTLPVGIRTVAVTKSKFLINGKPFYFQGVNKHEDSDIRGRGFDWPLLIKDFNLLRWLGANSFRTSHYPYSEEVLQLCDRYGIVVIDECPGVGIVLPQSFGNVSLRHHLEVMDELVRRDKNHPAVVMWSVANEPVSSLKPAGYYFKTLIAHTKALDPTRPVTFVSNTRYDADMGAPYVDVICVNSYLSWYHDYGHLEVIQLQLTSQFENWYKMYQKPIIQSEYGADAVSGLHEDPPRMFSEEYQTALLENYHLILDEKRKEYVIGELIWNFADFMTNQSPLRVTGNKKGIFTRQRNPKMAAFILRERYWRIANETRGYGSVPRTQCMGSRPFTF
Method: GL was synthesized and microencapsulated to give sustained-release GL (EGL), by an established procedure used to microencapsulate ascorbic acid, as reported in Samejima, M. et al., Chem. Pharm. Bull., (Tokyo) 1982, 30:2894-2899. In this procedure, the GL as a fine powder is added to a stirred mixture of cyclohexane, polyisobutylene as coacervation-inducing agent and ethylcellulose as wall-forming material. The addition of GL is at 78° C., then phase separation is induced by lowering the temperature first to 40° C., then to 25° C. The microcapsules, which have thick walls, are washed with cyclohexane and dried. […] DAGDL, calcium D-glucarate (CGT), and potassium hydrogen D-glucarate (PGT) were synthesized. For comparison of efficacy of the inhibitors, 1,5 mmoles/kg (GL, EGL or DAGDL) or 4.5 mmoles/kg (CGT or PGT) of the inhibitor in 1.0 ml of sesame oil or vehicle only (controls) was administered to rats by stomach tube at zero time. Blood samples were obtained from different rats by cardiac puncture under ether anesthesia. The serum was prepared and assayed for β-glucuronidase activity using a commerical diagnostic kit sold by Sigma Chemical Company, St. Louis, MO. The assay is based on the hydrolysis of phenolphthalein-glucuronide and quantitation of phenolphthalein in alkaline medium at […]. For tests of anti-carcinogencity, the inhibitors were administered by stomach tube in 1.0 ml of sesame oil 30 minutes before and again at 2.5 hours after the carcinogen, for DAGDL, or 3 hours and 30 minutes before the carcinogen, for EGL, CGT, and PGT. The controls received sesame oil only by stomach tube.
At the time periods indicated above blood samples were obtained from rats under ether aneathesia by cardiac puncture, the serum was then prepared and assayed for β-glucuronidase activity using a commercial diagnostic kit sold by Sigma Chem. Co., St. Louis, MO.
For the inhibition of the initiation stage, CGT was given by gavage in two doses (4.5 mmoles/kg/dose) at 3 hours and again at 0.5 hours before carcinogen administration. […] The concentrations of CGT were incorporated into the powdered chow diet. The blood samples were obtained 10 days after the initiation of the CGT feeding.
DAGDL or GL (1.5 mmol/kg) in 1.0 ml of sesame oil, or vehicle only (controls) was administered to rats by stomach tube at zero time. […] The serum was prepared and assayed for β-glucuronidase activity using a commercial diagnostic kit sold by Sigma Chemical Company, St. Louis, MO. The assay is based on the hydrolysis of phenolphthalein-glucuronide and quantitation of phenolphtalein in alkaline medium at 550 nm.

60 kd oncofetal protein = test: effect of β-glucuronidase inhibitors on carcinogen induction of the 60 kd factor in plasma (cell-free RNA transport assay); type: in vivo, rat
[2] = Description: In the long term feeding experiments in which CGT intake was over an extended period of time, at the termination of the experiment the following organs were examined macroscopically and weighed: liver, kidneys, adrenals.
The adrenals were slightly (ca 20%) smaller by weight in the group receiving 10% CGT supplemented chow.

[3] = test system: Estrogen and Androgen Levels
serum β-glucuronidase [4] = target: T1, serum β-glucuronidase; type: in vivo; conditions: 1.0 mmoles/kg i.g., assayed 1 hour after administration
[5] = rat, in vivo, ip
Method: TCDD was administered i.p. in a single dose of 40 μg/kg in sesame oil (0.5 ml) to 125 gm female Sprague Dawley rats. One group of 4 rats received 2 doses of CGT (4.5 mmole/kg) in sesame oil (1.0 ml) by stomach tube at 3 hours and a second dose at 0.5 hours before treatment with TCDD. A second, TCDD-treated group received oil only in place of the CGT. Control rats received oil only by stomach tube and i.p. injection.

Morris Hepatoma 7777 = test: growth of transplanted Morris Hepatoma 7777; type: in vivo, rat; conditions: 2% CGT diet from one week before transplant, male Buffalo rats
Method: One group of male Buffalo rats was put on 2% CGT diet one week before the hepatoma transplant, while the other group of rats (controls) was kept on the regular chow diet. A minimum number of Morris Hepatoma 7777 cells consistent with tumor growth were innoculated subcutaneously in the left flank of all rats. Tumor diameters were measured at least twice weekly, and tumor volume was calculated.

[6] = second dose of DAGDL 3 hours after the initial dose, 2.5 hours after carcinogen
[7] = carcinogen 7,12-Dimethylbenz[a]anthracene, 21 days post-treatment
[8] = +DAGDL (1.5% DAGDL diet), female Sprague Dawley rats
[9] = +DAGDL (1.5% DAGDL diet), male Sprague Dawley rats
[10] = +CGT, 50 day old Sprague Dawley female rats

CC(=O)O[C@@H]1C(=O)O[C@H]2[C@@H]1OC(=O)[C@@H]2OC(C)=O [DAGDL, 2,5-di-O-acetyl-D-glucaro-1,4;6,3-dilactone]
time to 50% inhibition of serum β-glucuronidase (serum β-glucuronidase [1]; 1.5 mmol/kg): ≤ 0.5 h | time for which 50% inhibition or greater is maintained (serum β-glucuronidase [1]; 1.5 mmol/kg, single dose): approximately 3 hours | reduction of serum β-glucuronidase activity (serum β-glucuronidase [1]; 1.5 mmoles/kg i.g., assayed 1 hour after administration): 80% | effect of carcinogen co-administration on degree of β-glucuronidase inhibition (serum β-glucuronidase [1]; carcinogen co-administered): not influenced significantly | inhibition at 1500 µmol/kg (serum β-glucuronidase [1]; rat, 1.5 mmol/kg, within 0.5 hour of administration): 50% | duration of approximately 50% inhibition after second dose (serum β-glucuronidase [1]; [6]): up to 6 hours | inhibition of β-glucuronidase after second dose (serum β-glucuronidase [1]; [6]): approximately 50% | time-course of serum β-glucuronidase inhibition (serum β-glucuronidase [1]; single i.g. dose 1.5 mmoles/kg (GL, DAGDL, EGL)): marked and prolonged inhibition; also recorded: more prolonged inhibition | 60 kd factor in plasma, MNU with inhibitor (60 kd oncofetal protein; 504 h): 1.2 Units | Percent Inhibition of the induction of the 60 kd factor (60 kd oncofetal protein; carcinogen 2-Acetylaminofluorene, 21 days post-treatment): 66% | Percent Inhibition of the induction of the 60 kd factor (60 kd oncofetal protein; [7]): 77% | Percent Inhibition of the induction of the 60 kd factor (60 kd oncofetal protein; carcinogen Benzo[a]pyrene, 21 days post-treatment): 76% | decrease of adrenal weight ([2]; DAGDL supplemented chow): 20-30% | sex hormone levels ([3]; 1.5% DAGDL diet, male and female rats): reduces sex hormone levels; also recorded: lower steady state level of steroid hormones | 17-Ketosteroids (urinary excretion) [3, 8]: 12 μg/100 g body wt × 24 hrs | Estradiol (serum) [3, 8]: 140 pmol/L | 17-Ketosteroids (urinary excretion) [3, 9]: 17 μg/100 g body wt × 24 hrs | Testosterone (serum) [3, 9]: 9 nmol/L | reduction of serum β-glucuronidase activity (serum β-glucuronidase [4]): 50%

O=C([O-])[C@@H](O)[C@@H](O)[C@H](O)[C@@H](O)C(=O)[O-].[Ca+2] [CGT, calcium D-glucarate]
reduction of serum β-glucuronidase activity (serum β-glucuronidase [1]; rat, in vivo): 50% and 80% | reduction of serum β-glucuronidase levels by dietary CGT (serum β-glucuronidase [1]; rat, in vivo): 50% | time-course of serum β-glucuronidase inhibition (serum β-glucuronidase [1]; rat, in vivo): prolonged inhibition | Percent Inhibition of the induction of the 60 kd factor (60 kd oncofetal protein; carcinogen 1,2-Dimethylhydrazine, 21 days post-treatment): 60% | Percent Inhibition of the induction of the 60 kd factor (60 kd oncofetal protein; carcinogen 1-Nitropyrene, 21 days post-treatment): 50% | Percent Inhibition of the induction of the 60 kd factor (60 kd oncofetal protein; carcinogen 2-Naphthylamine, 21 days post-treatment): 49% | Percent Inhibition of the induction of the 60 kd factor (60 kd oncofetal protein; carcinogen 3-Methylcholanthrene, 21 days post-treatment): 43% | Percent Inhibition of the induction of the 60 kd factor (60 kd oncofetal protein; [7]): 83% | Percent Inhibition of the induction of the 60 kd factor (60 kd oncofetal protein; carcinogen N-Nitrosodibutylamine, 21 days post-treatment): 53% and > 50% | Percent Inhibition of the induction of the 60 kd factor (60 kd oncofetal protein; carcinogen N-Nitrosodiethylamine, 21 days post-treatment): 41% | Percent Inhibition of the induction of the 60 kd factor (60 kd oncofetal protein; carcinogen N-Nitrosodimethylamine, 21 days post-treatment): 76% | Percent Inhibition of the induction of the 60 kd factor (60 kd oncofetal protein; carcinogen N-Nitrosoethylurea, 21 days post-treatment): 68% | Percent Inhibition of the induction of the 60 kd factor (60 kd oncofetal protein; carcinogen N-Nitrosomethylurea, 21 days post-treatment): 69% | Percent Inhibition of the induction of the 60 kd factor (60 kd oncofetal protein; carcinogen Safrole, 21 days post-treatment): 45% | Percent Inhibition of the induction of the 60 kd factor (60 kd oncofetal protein; rat, in vivo): 86% and 70% | decrease of adrenal weight ([2]; rat, in vivo): ~20% | food intake and weight-gain compared with chow diet ([2]; rat, in vivo): essentially identical to those on chow diet | liver and kidney weights compared with controls ([2]; rat, in vivo): essentially identical in weight | effect on TCDD toxicity [5]: definite anti-"TCDD toxicity" effect | tumor growth compared with control group (Morris Hepatoma 7777): slightly slower | 17-Ketosteroids (urinary excretion) [3, 10]: 13 μg/100 g body wt × 24 hrs | Estradiol (serum) [3, 10]: 39 pg/mL | reduction of serum estradiol level ([3]; CGT diet, female rats): 24% | reduction of urinary 17-ketosteroid level ([3]; CGT diet, female rats): 55%

— patent publication US4845123A, “Reduction in vivo of the inappropriate levels of endogenous and environmental-derived compounds by sustained-release inhibitors of β- g” (priority 1985, dated 1989)
